IC50 and Ki data for eleven compounds are collected here from ChEMBL document CHEMBL1130188, “Synthesis and stereochemical structure-activity relationships of 1,3-dioxoperhydropyrido[1,2-c]pyrimidine derivatives: potent and selective cholecystokinin-A receptor antagonists” (J Med Chem, 1997).

Some results are limits rather than exact numbers.

The species named for assay [1] is Rattus norvegicus. The assay is described as follows: Compound was tested for inhibition of amylase release stimulated by CCK-8 (0.5 nM) in dispersed pancreatic acini.
The target of assay [2] is T1, Cholecystokinin receptor type A (Rattus norvegicus, UniProt P30551).
T1 sequence (P30551 whole entry): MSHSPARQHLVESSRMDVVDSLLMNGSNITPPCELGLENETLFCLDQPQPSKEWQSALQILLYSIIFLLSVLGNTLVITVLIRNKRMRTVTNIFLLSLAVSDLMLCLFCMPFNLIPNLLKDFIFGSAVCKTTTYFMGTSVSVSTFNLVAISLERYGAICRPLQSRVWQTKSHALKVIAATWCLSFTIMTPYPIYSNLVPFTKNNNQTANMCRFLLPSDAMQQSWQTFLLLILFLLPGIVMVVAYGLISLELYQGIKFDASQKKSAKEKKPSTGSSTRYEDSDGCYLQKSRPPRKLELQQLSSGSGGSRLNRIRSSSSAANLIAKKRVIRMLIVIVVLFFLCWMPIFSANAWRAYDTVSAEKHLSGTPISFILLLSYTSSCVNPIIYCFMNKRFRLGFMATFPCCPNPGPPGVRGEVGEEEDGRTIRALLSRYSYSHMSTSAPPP
The assay is described as follows: Inhibition of [3H]pCCK-8 specific binding to Cholecystokinin type A receptor of rat pancreas.

The target of assay [3] is T2, Gastrin/cholecystokinin type B receptor (Rattus norvegicus, UniProt P30553).
T2 sequence (P30553 whole entry): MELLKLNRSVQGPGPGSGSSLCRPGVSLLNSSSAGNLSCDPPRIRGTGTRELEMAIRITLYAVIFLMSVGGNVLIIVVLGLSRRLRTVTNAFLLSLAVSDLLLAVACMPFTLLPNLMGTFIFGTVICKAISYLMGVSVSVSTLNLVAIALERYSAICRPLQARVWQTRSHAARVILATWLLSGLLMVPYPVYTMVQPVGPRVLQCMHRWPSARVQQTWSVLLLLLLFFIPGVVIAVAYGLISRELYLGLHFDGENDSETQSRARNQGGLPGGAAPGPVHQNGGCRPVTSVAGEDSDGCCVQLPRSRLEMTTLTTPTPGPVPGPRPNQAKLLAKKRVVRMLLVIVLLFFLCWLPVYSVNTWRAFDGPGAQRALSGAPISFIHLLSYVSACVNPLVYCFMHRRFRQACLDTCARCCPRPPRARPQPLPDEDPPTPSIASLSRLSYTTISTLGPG
The assay is described as follows: Inhibition of [3H]- pCCK-8 binding to Cholecystokinin type B receptor of rat cerebral cortex membranes. It counts as cell membranes, Membrane.

As a reminder, the IC50 is the concentration at which inhibition is half-maximal. A low value points to inhibition by little substance. In assay [1], `CN1C(=O)[C@H](NC(=O)c2cc3ccccc3[nH]2)N=C(c2ccccc2)c2ccccc21` returned a half-maximal inhibitory concentration (IC50) of 25.4 nM.
The term Ki denotes a dissociation constant, usually derived from enzyme kinetics or from competition with a known ligand. A high value points to weaker binding. On to `COC(=O)[C@]1(Cc2ccccc2)C[C@@H]2[C@@H](NC(=O)[C@@H](Cc3c[nH]c4ccccc34)NC(=O)OC(C)(C)C)CCCN2C1=O`, for which the results for the Ki in assay [2] and in assay [3] were above 5000 nM and 1560 nM, respectively.
The like results for `CC(C)(C)OC(=O)N[C@@H](Cc1c[nH]c2ccccc12)C(=O)N[C@@H]1CCCN2C(=O)N(Cc3ccccc3)C(=O)C[C@@H]12` [IQM-95333] were, in that order, 2890 nM and 2910 nM.
Regarding `CC(C)(C)OC(=O)N[C@H](Cc1c[nH]c2ccccc12)C(=O)N[C@H]1CCCN2C(=O)N(Cc3ccccc3)C(=O)C[C@H]12`, the Ki in assay [2] and in assay [3] was above 5000 nM each time.
In assay [3], `CC(C)(C)OC(=O)N[C@H](Cc1c[nH]c2ccccc12)C(=O)N[C@@H]1CCCN2C(=O)N(Cc3ccccc3)C(=O)C[C@H]12` showed a Ki above 5000 nM.
With `CC(C)(C)OC(=O)N[C@@H](Cc1c[nH]c2ccccc12)C(=O)N[C@H]1CCCN2C(=O)N(Cc3ccccc3)C(=O)C[C@H]12`, the Ki in assay [2] is 572 nM; in assay [3], above 5000 nM.
For the compound `COC(=O)[C@@]1(Cc2ccccc2)C[C@@H]2[C@@H](NC(=O)[C@H](Cc3c[nH]c4ccccc34)NC(=O)OC(C)(C)C)CCCN2C1=O`, the Ki in assay [3] is above 5000 nM.
For `CC(C)(C)OC(=O)N[C@@H](Cc1c[nH]c2ccccc12)C(=O)N[C@@H]1CCCN2C(=O)N(Cc3ccccc3)C(=O)C[C@H]12`, the Ki was 10.6 nM in assay [2] and 2730 nM in assay [3]. The same compound yielded a half-maximal inhibitory concentration (IC50) in assay [1] of 201 nM.
With `CC(C)(C)OC(=O)N[C@@H](Cc1c[nH]c2ccccc12)C(=O)N[C@H]1CCCN2C(=O)N(Cc3ccccc3)C(=O)C[C@@H]12`, the Ki was 0.62 nM in assay [2] and above 5000 nM in assay [3]. The compound also displayed an IC50 in assay [1] of 21.3 nM.
`CC(C)(C)OC(=O)N[C@H](Cc1c[nH]c2ccccc12)C(=O)N[C@H]1CCCN2C(=O)N(Cc3ccccc3)C(=O)C[C@@H]12`: the Ki is 298 nM in assay [2] and above 5000 nM in assay [3].
The like results for `CC(C)(C)OC(=O)N[C@H](Cc1c[nH]c2ccccc12)C(=O)N[C@@H]1CCCN2C(=O)N(Cc3ccccc3)C(=O)C[C@@H]12` were, in that order, above 5000 nM and 1890 nM.
